{"source": "patent US20230391821A1", "about": "“METHODS FOR TARGET RELEASE FROM INTEIN COMPLEXES” (MERCK PATENT GMBH, priority 2020, published 2023)", "key": {"[1]": {"test_system": "intein complex of 13 kDa intein-C tagged target (Thioredoxin) and intein-N ligand R44-358132", "test": "Example 2-1: intein cleavage / tagless target release on intein-N column, Cleavage Buffer pH 7 with additives", "type": "biochemical, Escherichia coli (strain K12)", "details": "13 kDa target, versus Cleavage B.1"}, "[2]": {"test_system": "intein complex of 13 kDa intein-C tagged target and intein-N ligand R46-358132", "test": "Example 4: intein cleavage with 10 min residence time during elution, with and without pH shift", "type": "biochemical", "protocol": "The intein-N resin prototype column, carrying a third generation of intein-N ligand (R46-358132) was used for five intein purifications. The improvement of intein cleavage through additives such as imidazole (Examples 2, 3) was studied under longer residence times, with and without introducing a pH shift during the elution phase.\nOne reference run (cycle 1) was accomplished as a reference run for that study, using 5 minutes residence time during the whole purification process (0.2 ml/min flow rate). Further, the intein-N resin prototype column was used in additional four consecutive cycles (cycles 2-5) where a combinatorial method flow rate was given. […]\nDepending on the used buffer system during the elution phase, the amount of eluted tagless 13 kDa target was about 0.40-0.91 mg. […] The total intein-C bound protein was calculated using the eluted target and the remaining intein-C target, that was released during the cleaning phase together with the remained intein-C fragments. The amount of eluted target during elution step 1 and step 2 was calculated for all five cycles using the A280-Absorbance and the molecular extinction coefficient of the cleaved target.\nThe yield of tagless released target during the elution phase was calculated per total bound amount of intein-C target. […]"}, "[3]": {"test_system": "intein complex of intein-C tagged S1-RBD (26 kDa) and intein-N ligand R49-358132", "test": "Example 6: intein cleavage at pH 7, highly glycosylated target S1-RBD", "type": "biochemical, SARS-CoV-2", "details": "versus Cleavage B.1"}, "[4]": {"test_system": "intein complex of 13 kDa intein-C tagged target and intein-N ligand R44-358132", "test": "Example 3: intein cleavage under capture conditions (pH 9), no pH shift", "type": "biochemical", "details": "13 kDa target, versus Capture A.1", "protocol": "A 13 kDa intein-C tagged target was pre-purified using Strep-II Tag purification as described in example 1 and was diluted to a concentration of 1 mg/mL. The intein-N resin prototype column was equilibrated with 10 CV Capture Buffer (100 mM Tris, 200 mM NaCl, pH 9). The pre-purified intein-C target was loaded with 5 CV to the prototype column under capture conditions (100 mM Tris, 200 mM NaCl, pH 9). The impurities were washed out with 10 CV Capture Buffer (100 mM Tris, 200 mM NaCl, pH 9). The Capture Buffer designated A.1 (100 mM Tris, 200 mM NaCl, pH 9) was used as a reference in this setup. […]\nThe two different Capture Buffers A.1 and A.2 were used in two consecutive purification cycles. The A280-Absorbance chromatograms were recorded and analyzed to determine the amount of protein recovered from the elution and the CIP phase.\nThe amount of eluted target recovered from the elution step 1 and elution step 2 were determined using the A280-Absorbance and the molecular extinction coefficient of the cleaved target. The total bound amount of intein-C tagged protein was calculated using the eluted target, and the remaining intein-C target, that was released during the cleaning phase together with the remained intein-C fragments. The yield of tagless released target during the elution phase was calculated per total bound intein-C target. […]"}, "[5]": {"test_system": "intein complex of intein-C tagged hEPO (19 kDa) and intein-N ligand R46-358132", "test": "Example 6: intein cleavage at pH 7, highly glycosylated target hEPO", "type": "biochemical, human", "details": "versus Cleavage B.1"}}}
{"smiles": "c1c[nH]cn1", "note": "[imidazole]", "values": [{"measurement": "% improvement in yield (E1)", "setting": "[1]", "result": "up to 11.15%"}, {"measurement": "elution amount in A280 chromatogram compared with buffer without additive", "setting": "[2]; 13 kDa target, elution 1 and 2, FIG. 9", "result": "higher elution amount"}, {"measurement": "% improvement in yield (E1)", "setting": "[2]; cycle 3 (B.2) versus cycle 1 (B.1, 0.2 ml/min), cycle 5 (A.2) versus cycle 4 (A.1)", "result": 12.51, "unit": "%"}, {"measurement": "% improvement in yield (total)", "setting": "[3]", "result": 1.95, "unit": "%"}, {"measurement": "% improvement in yield (E1)", "setting": "[4]", "result": 15.15, "unit": "%"}, {"measurement": "% improvement in yield (total)", "setting": "[5]", "result": 12.22, "unit": "%"}]}
